This passage reports IC50 results from patent publication US9018211B2, “Inhibitors of the renal outer medullary potassium channel” (Merck Sharp & Dohme Corp., priority 2009, dated 2015).

Assay type in all cases: cell-based
The target of test [1] is hROMK (hKir1.1) (Homo sapiens (Human), UniProt P48048). Briefly: Thallium Flux Assay. The conditions noted are these: HEK293 cells stably expressing hROMK; FLIPR-Tetra, 30 min incubation. On the procedure:
(§1) Several assays may be used to measure functional inhibition of the ROMK channel by compounds of the instant invention. One primary assay that can be used is a functional ^86Rb^+ efflux assay that measures the ability of ROMK to permeate ^86Rb^+, in the absence or presence of test compound. Under control conditions, cells loaded with ^86Rb^+ and incubated in Rb^+-free medium display a time-dependent efflux of the isotope, the rate of which depends on number of functional channels. […] This assay has been established with cell lines expressing either human, rat or dog ROMK channels, and can operate in 96- or 384-well format. Importantly, the human, rat, and dog ^86Rb^+ efflux assays can be carried out in the presence of up to 100% serum allowing, therefore, an accurate estimation of the effect of protein binding on the inhibitory activity of compounds of interest. Another ROMK functional assay makes use of the ability of thallium to permeate through open ROMK channels and increase the fluorescence of a dye previously loaded into the cells. Under control conditions, cells loaded with dye and exposed to thallium-containing medium display a time-dependent increase in fluorescence, the rate of which depends on number of functional channels. When cells are incubated in the presence of a channel inhibitor, the increase in fluorescence is attenuated in a concentration-dependent manner, and IC50 values of inhibition by compounds can be accurately determined. This assay has been established with cell lines expressing either human, or rat ROMK channels, and operates in 384-well format. Another assay for evaluation of the compounds of the instant invention and for evaluation of mechanism of action of compounds of Formula I relies on the measurement of the electrical current that is generated as potassium permeates through the channel. For these electrophysiological experiments, three different platforms, IonWorks, QPatch, or manual patch clamp, are used, depending on the experimental protocol under consideration. IonWorks operates in a 384-well format and allows accurate determination of IC50 values for inhibitors.
To dislodge the cell, gently bang the side of the flask with your hand. […] Centrifuge at 1,500 rpm for 6 min followed by resuspension in complete growth media and determine cell concentration. […] Under ideal growth conditions and appropriate tissue culture practices, this cell line is stable for 40-45 passages.
FluxOR Kit Components (Invitrogen F10017)
• FluxOR™ Reagent (Component A) • FluxOR™ Assay Buffer (Component B)—10× Concentrate • PowerLoad™ Concentrate (Component C)—100× Concentrate • Probenecid (Component D)—Lyophilized sample is kept at −20° C. Water soluble, 100× after solubilization in 1 ml water. […] Store at 4° C. • Thallium sulfate (Tl2SO4) Concentrate (Component G)—50 mM in water. […] Can be stored at room temperature • Stimulant Buffer (prepared at 5× final concentration in 1× FluxOR™ Chloride-Free Buffer): 7.5 mM Thallium sulfate and 0.75 mM Potassium sulfate (to give a final assay concentration of 3 mM Thallium/0.3 mM Potassium). Store at 4° C. when not in use. If kept sterile, this solution is good for months.

Test [2] concerns the target hROMK1 (Kir1.1) (Homo sapiens (Human), UniProt P48048). As to the kind of experiment: 86Rb+ Efflux Assay. The conditions noted are these: CHO-DHFR- cells stably expressing hROMK1; 35 min incubation. On the procedure:
as §1

Test [3] has as its target Kir1.1 (ROMK1) (Homo sapiens (Human), UniProt P48048). As to the kind of experiment: ROMK Electrophysiology Assay (IonWorks Quattro whole cell voltage clamp). The conditions noted are these: Chinese hamster ovary cells stably expressing Kir1.1; block at voltage step to 0 mV, 6 min compound incubation. On the procedure:
as §1
Chinese hamster ovary cells stably expressing Kir1.1 channels were maintained in T-75 flasks in cell culture media in a humidified 10% CO2 incubator at 37° C. Prior to an experiment, Kir1.1 expression was induced by overnight incubation with 1 mM sodium butyrate. […] After centrifugation, the cell pellet was resuspended in approximately 4.0 ml of bath solution and placed in the IonWorks instrument. The intracellular solution consisted of (in mM): 80 K gluconate, 40 KCl, 20 KF, 3.2 MgCl2, 3 EGTA, 5 Hepes, pH 7.4. […] Current amplitudes were measured using the IonWorks software.
(In patch-clamp work, channel activity is measured electrically.)

hROMK (hKir1.1), sequence (P48048 whole entry): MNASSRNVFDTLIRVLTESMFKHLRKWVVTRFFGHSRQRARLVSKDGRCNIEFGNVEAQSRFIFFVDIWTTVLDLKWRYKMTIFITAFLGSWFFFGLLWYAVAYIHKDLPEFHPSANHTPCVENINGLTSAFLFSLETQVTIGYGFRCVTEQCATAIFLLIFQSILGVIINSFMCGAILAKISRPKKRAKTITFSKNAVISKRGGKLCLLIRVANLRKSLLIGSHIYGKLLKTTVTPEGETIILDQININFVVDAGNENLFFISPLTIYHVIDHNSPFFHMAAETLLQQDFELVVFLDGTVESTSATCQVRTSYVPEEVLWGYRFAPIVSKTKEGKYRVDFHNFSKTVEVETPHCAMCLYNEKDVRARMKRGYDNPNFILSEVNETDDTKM
hROMK1 (Kir1.1), sequence (P48048 whole entry): as above
Kir1.1 (ROMK1), sequence (P48048 whole entry, species assumed): as the sequence (P48048 whole entry) above

For the compound `Cc1c(C(O)CN2CCN(CC3CCc4c3ccc(F)c4C#N)CC2)ccc2c1COC2=O` (centres unmarked) [Example 55, 5-fluoro-1-({4-[2-hydroxy-2-(4-methyl-1-oxo-1,3-dihydro-2-benzofuran-5-yl)ethyl]piperazin-1-yl}methyl)-2,3-dihydro-1H-indene-4-carbonitrile], the values for the IC50 in test [1], in test [2] and in test [3] were 15 nM, 47 nM and 23 nM, respectively.

As to `Cc1c(C(O)CN2CCN(CC3CCc4c3ccc3c4COC3=O)CC2)ccc2c1COC2=O` (centres unmarked) [Example 20, 6-({4-[2-hydroxy-2-(4-methyl-1-oxo-1,3-dihydro-2-benzofuran-5-yl)ethyl]piperazin-1-yl}methyl)-1,6,7,8-tetrahydro-3H-indeno[4,5-c]furan-3-one], the results for the half-maximal inhibitory concentration (IC50) in test [1], in test [2] and in test [3] were 7 nM, 36 nM and 14 nM, respectively.

Regarding `COc1cc(C(O)CN2CCN(CCc3ccc4c(c3C)COC4=O)CC2)c(F)cc1C#N` (centres unmarked) [Example 24, 5-fluoro-4-(1-hydroxy-2-{4-[2-(4-methyl-1-oxo-1,3-dihydro-2-benzofuran-5-yl)ethyl]piperazin-1-yl}ethyl)-2-(methyloxy)benzonitrile], the values for the IC50 in test [1] and in test [2] were 26 nM and 130 nM, respectively.

For `Cc1c(CCN2CCN(CC(O)c3ccc4c(c3C)COC4=O)CC2)ccc2c1COC2=O` (centres unmarked) [Example 12, 5-(1-hydroxy-2-{4-[2-(4-methyl-1-oxo-1,3-dihydro-2-benzofuran-5-yl)ethyl]piperazine-1-yl}ethyl)-4-methyl-2-benzofuran-1(3H)-one], the IC50 in test [1] worked out at 6 nM; in test [2], 46 nM; in test [3], 13 nM.

Turning to `O=C1OCc2c1ccc(C(O)CN1CCN(CC(O)c3ccc4c(c3Cl)COC4=O)CC1)c2Cl` (centres unmarked) [Example 5], the IC50 in test [1] turned out to be 13 nM; in test [2] it was 88 nM; in test [3], 7 nM.

By IC50 is commonly meant the concentration that gives 50% inhibition. Read a low IC50 as inhibition by little substance.
